Assay results taken from patent US9363998B2, “Pesticidal composition and its use” (SUMITOMO CHEMICAL COMPANY, LIMITED, priority 2010, dated 2016).

Test system: Rhizoctonia solani
Experiment: Soybean seed treatment test in soil contaminated by Rhizoctonia solani (disease control efficacy)
Format: in vivo, Rhizoctonia solani on soybean (variety: Natto shoryu)
Settings: carboxamide compound alone 0.2 g/100 kg of seeds, no thiodicarb, soybean cultivated 20 days in soil contaminated by Rhizoctonia solani, efficacy vs non-treated plot
Method: A cyclohexanone solution (100 microL) containing prescribed amount (weight) of a test compound was applied on seeds of soybean (variety:Natto shoryu) (10 g) by using a rotary apparatus for seed treatment (Seed dresser, manufactured by Hans-Ulrich Hege GmbH).
One day after the application, plastic pot was filled with soil contaminated by Rhizoctonia solani, and the seeds treated with the test compounds were seeded in the soil and cultivated in a glass-greenhouse for 20 days (hereinafter referred to as “treated plot”).
Thereafter, the presence of disease caused by Rhizoctonia solani in the young plants which germinated from each seed was observed and disease severity was calculated according to the following calculation formula (1).
On the other hand, seeds of soybean which were not treated as above were cultivated in the same way as above (hereinafter referred to as “non-treated plot”) and the disease severity in “non-treated plot” was calculated in the same way as the above “treated plot”. On the basis of the above disease severity in “treated plot” and “non-treated plot”, efficacy in “treated plot” was evaluated according to the following calculation formula (2). […]

`CC1CC(C)(C)c2cccc(NC(=O)c3cn(C)nc3C(F)F)c21` (stereo not shown) [carboxamide compound (1)] was tested, and the “efficacy (%)” value was 47.4%.
